From ChEMBL document CHEMBL5725427, “7-hydroxy-indolinyl antagonists of P2Y1 receptor” (2017)

Target: P2Y purinoceptor 1 (Homo sapiens, UniProt P47900)
Experiment: Scintillation Proximity Assay (SPA): A SPA membrane binding assay was used to identify inhibitors of [33P] […] Binding reactions were performed in 384-well OptiPlates (PerkinElmer Life Sciences, Cat #6007299) in a volume of 50 μL containing 15 fmol of P2Y1 receptor (1.7 μg of total protein), 0.3 nM [33P] […] Reactions were allowed to proceed to completion at room temperature for 1 hour followed by centrifugation of the plate for 5 min. About 40 μL of the aqueous solution was aspirated. Plates were sealed and the [33P]

Sequence of P2Y purinoceptor 1 (P47900 whole entry): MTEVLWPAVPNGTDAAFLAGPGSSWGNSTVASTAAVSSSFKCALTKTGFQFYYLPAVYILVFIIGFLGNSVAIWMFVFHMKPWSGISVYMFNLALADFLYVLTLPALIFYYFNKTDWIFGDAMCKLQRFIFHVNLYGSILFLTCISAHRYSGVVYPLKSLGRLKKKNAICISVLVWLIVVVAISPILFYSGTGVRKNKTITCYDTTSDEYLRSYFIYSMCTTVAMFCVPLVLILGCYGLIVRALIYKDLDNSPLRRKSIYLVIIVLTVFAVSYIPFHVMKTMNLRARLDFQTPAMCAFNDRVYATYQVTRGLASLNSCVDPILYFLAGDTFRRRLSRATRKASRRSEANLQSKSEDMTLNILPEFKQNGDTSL

SMILES	Ki [nM]
CC1(C)CN(c2ccccc2NC(=O)Nc2ccc(OC(F)(F)F)cc2)c2c(O)cc(F)c(-c3ccc(Cl)s3)c21	9.5
CC1(C)CN(c2ccccc2NC(=O)Nc2ccc(OC(F)(F)F)cc2)c2c(O)c(F)cc(-c3nc4cc(Cl)ccc4s3)c21	52
CC1(C)CN(c2ccccc2NC(=O)Nc2ccc(OC(F)(F)F)cc2)c2c(O)ccc(-c3nc4ccc(Cl)cc4s3)c21	13
CC1(C)CN(c2ccccc2NC(=O)Nc2csc(Cl)n2)c2c(O)cc(F)c(-c3nc4cc(Cl)ccc4s3)c21	13
CC1(C)CN(c2ccccc2NC(=O)Nc2nc3ccc(Cl)nc3s2)c2c(O)cc(F)c(-c3nc4ccc(F)cc4s3)c21	16
CC1(C)CN(c2ccccc2NC(=O)Nc2nc3ccc(Cl)cc3s2)c2c(O)cc(F)c(-c3nc4cc(Cl)ccc4s3)c21	98
CC1(C)CN(c2ccccc2NC(=O)Nc2nc3ccc(F)cc3s2)c2c(O)cc(F)c(-c3nc4cc(Cl)ccc4s3)c21	48
COc1cncc(-c2ccc(O)c3c2C(C)(C)CN3c2ccccc2NC(=O)Nc2ccc(OC(F)(F)F)cc2)c1	9.9
CC1(C)CN(c2ccccc2NC(=O)Nc2nc3ccc(Cl)cc3s2)c2c(O)ccc(-c3nc4cc(F)ccc4s3)c21	17

Other lines, results leading:

Ki [nM]	SMILES
39	CC1(C)CN(c2ccccc2NC(=O)Nc2nc3ccc(Cl)nc3s2)c2c(O)cc(F)c(-c3nc4cc(Cl)ccc4s3)c21
8.2	CC1(C)CN(c2ccccc2NC(=O)Nc2nc3ccc(Cl)nc3s2)c2c(O)cc(F)c(-c3ccc(Cl)s3)c21
13	CC1(C)CN(c2ccccc2NC(=O)Nc2ccc(OC(F)(F)F)cc2)c2c(O)ccc(-c3ccc(F)nc3)c21
78	CC1(C)CN(c2ccccc2NC(=O)Nc2nc3ccc(F)cc3s2)c2c(O)ccc(-c3nc4ccc(Cl)cc4s3)c21
90	CC1(C)CN(c2ccccc2NC(=O)Nc2nc3ccc(Cl)cc3s2)c2c(O)cc(F)c(-c3nc4ccc(F)cc4s3)c21
